Results as given in article PMC10458721, “Monitoring Both Extended and Tryptic Forms of Stable Isotope-Labeled Standard Peptides Provides an Internal Quality Control of Proteolytic Digestion in Targeted Mass Spectrometry-Based Assays” (Molecular & Cellular Proteomics : MCP, 2023).

How the values were obtained:
[1] = biological target: T1, trypsin (Sus scrofa, UniProt P00761); assay: Apparent first order hydrolysis of extended SIS peptides (kobs, half-life, time to 75% and 95% hydrolyzed); format: in vitro ADME; parameters: purchased Promega V5111; conditions: for Observed rate constant (slope of linear regression of Ln(A,t/A,0) over time): trypsin digestion time course, direct-MRM
T1 sequence (P00761 9-231): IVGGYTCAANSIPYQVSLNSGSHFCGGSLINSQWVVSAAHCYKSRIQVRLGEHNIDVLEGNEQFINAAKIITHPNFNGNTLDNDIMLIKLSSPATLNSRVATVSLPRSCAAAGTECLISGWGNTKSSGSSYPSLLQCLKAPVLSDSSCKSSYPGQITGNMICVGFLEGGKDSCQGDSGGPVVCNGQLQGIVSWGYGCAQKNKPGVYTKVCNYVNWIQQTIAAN
Procedure: By plotting the natural log as a function of time, or ln(At/A0)∼t, with At and A0 reported as the average peak area of hE from process triplicates at time t and time zero, respectively, a linear fit was calculated and kobs was reported as the slope of the fit (supplemental Table S9). […] Hydrolysis or disappearance of extended SIS peptides across both assays were categorized as fast, medium, slow, or pre-digested by Lys-C (not included in plot) by rate constants calculated using apparent first order kinetics. […] MRM, multiple reaction monitoring; SIS, stable isotope-labeled standard.

[2] = biological target: T1, trypsin; assay: hE/hT QC metric of proteolytic digestion (pass/marginal/fail); parameters: purchased Promega V5111; conditions: QC panel SIS pairs, 0 to 21 h, three replicates, versus 16-h control digestion
Source text: We next compared the utility of the peak area of hT and the ratio of hE/hT as a QC metric to monitor trypsin digestion efficiency. Measurements from the triplicate control digestion samples were used to define the acceptability criteria for the QC metric. A QC pass was defined as an hT value or hE/hT ratio within 2 SD of the median. A marginal QC was defined as a value that was less than three SD but more than two SD greater than the median. Finally, a QC failure was defined as a value that was three SDs greater than the median. We then tested the ability of the QC metric, as defined by either the hE/hT ratio or hT alone, to detect a loss of assay sensitivity, defined as the endogenous peak area in the stressed condition as a fraction of the control. There were 23 targets (15 for the direct-MRM assay, 8 for the immuno-MRM assay) that had endogenous measurements above the LLOQ in the control digestions and also had extended peptides that were not categorized as ‘pre-digested’.
Finally, to ensure the hE/hT QC metric was not subject to day-to-day variability, we excluded any SIS pairs that failed QC across our replicate, 16-h control digestions (one in the stressor experiment and one in the time course experiment). […]

[3] = fit with R2 > 0.80, min 3-4 time points
[4] = fit with R2 > 0.80, time points chosen to maximize R2 (minimum 4 points)

Row | Substance | Observed rate constant (slope of linear regression of Ln(A,t/A,0) over time) [1, 3] [min⁻¹] | Observed rate constant (slope of linear regression of Ln(A,t/A,0) over time) [1, 4] [min⁻¹] | also measured
1 | AATC[+57]SKYTELPYGREDVLKE |  |  | Half-life of extended SIS peptide ([1]; direct-MRM trypsin digestion time course, from observed rate constant): 31.34 min
2 | DEVIKEVQEFYKDTYNK [CD9_P21926_1751] | -0.0217 |  | 
3 | DSFRFGAPPHAGGGIGLERVTML [DARS_P14868_1752] | -0.0308 |  | 
4 | DTKSDIIFFQRSVP [IL18_Q14116_1752] | -0.1677 |  | 
5 | EEMEKVLAGETLSVNDPPDVLDRQK [ILF3_Q12906_GO] | -0.0481 |  | 
6 | GEEDNSLSVR[+10] |  |  | hE/hT QC result in trypsin digestion time course [2]: inconsistent QC results across the three replicates prior to the last time point
7 | IERTFHVETPEEREEW [AKT1_P31749_1751] |  | -0.0388 | 
8 | IQVGRNIIHGSDSVESAEKEIGLWF [NME1_P15531_1753] |  | -0.0813 | 
9 | KHRTGDEITYQC[+57]RNGF [CFH_P08603_1752] |  | -0.0473 | 
10 | YTELPYGR[+10] |  |  | hE/hT QC result in trypsin digestion time course [2]: pass QC, then fail (or marginally pass) the QC at the latest time point
